According to ChEMBL document CHEMBL5257022, “An integrated overview on pyrrolizines as potential anti-inflammatory, analgesic and antipyretic agents” (Eur J Med Chem, 2016):

What was measured:
Rattus norvegicus [1] = experiment: Antiinflammatory activity in rat assessed as fold change in inhibition of paw edema relative to phenylbutazone; type: functional
Mus musculus = species: Mus musculus; experiment: Analgesic activity in mouse assessed as inhibition of acetic acid-induced writhing response relative to aspirin; type: functional
[2] = target: Prostaglandin G/H synthase 1 (Homo sapiens, UniProt P23219); experiment: Inhibition of COX1 (unknown origin)
Prostaglandin G/H synthase 1, sequence (P23219 whole entry): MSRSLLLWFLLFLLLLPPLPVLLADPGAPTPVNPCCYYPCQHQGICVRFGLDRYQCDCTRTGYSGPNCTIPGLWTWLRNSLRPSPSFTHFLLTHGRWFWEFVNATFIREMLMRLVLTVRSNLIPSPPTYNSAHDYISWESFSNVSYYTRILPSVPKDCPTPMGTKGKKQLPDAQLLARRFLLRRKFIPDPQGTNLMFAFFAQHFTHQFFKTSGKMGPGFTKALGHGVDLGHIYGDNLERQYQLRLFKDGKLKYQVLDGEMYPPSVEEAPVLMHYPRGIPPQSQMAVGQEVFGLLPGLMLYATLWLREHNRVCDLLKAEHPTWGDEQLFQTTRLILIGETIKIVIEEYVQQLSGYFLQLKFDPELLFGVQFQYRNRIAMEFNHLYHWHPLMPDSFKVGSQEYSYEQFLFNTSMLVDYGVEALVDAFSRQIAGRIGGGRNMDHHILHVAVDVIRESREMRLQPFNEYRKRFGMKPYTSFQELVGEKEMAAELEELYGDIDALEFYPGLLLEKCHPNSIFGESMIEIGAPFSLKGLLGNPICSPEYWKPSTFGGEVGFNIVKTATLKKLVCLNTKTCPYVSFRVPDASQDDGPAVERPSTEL

[3] = target: T1, Polyunsaturated fatty acid 5-lipoxygenase (Homo sapiens) (UniProt P09917); experiment: Inhibition of 5-LOX in human PMNL at 10 uM relative to control; type: cell-based
T1 sequence (whole entry): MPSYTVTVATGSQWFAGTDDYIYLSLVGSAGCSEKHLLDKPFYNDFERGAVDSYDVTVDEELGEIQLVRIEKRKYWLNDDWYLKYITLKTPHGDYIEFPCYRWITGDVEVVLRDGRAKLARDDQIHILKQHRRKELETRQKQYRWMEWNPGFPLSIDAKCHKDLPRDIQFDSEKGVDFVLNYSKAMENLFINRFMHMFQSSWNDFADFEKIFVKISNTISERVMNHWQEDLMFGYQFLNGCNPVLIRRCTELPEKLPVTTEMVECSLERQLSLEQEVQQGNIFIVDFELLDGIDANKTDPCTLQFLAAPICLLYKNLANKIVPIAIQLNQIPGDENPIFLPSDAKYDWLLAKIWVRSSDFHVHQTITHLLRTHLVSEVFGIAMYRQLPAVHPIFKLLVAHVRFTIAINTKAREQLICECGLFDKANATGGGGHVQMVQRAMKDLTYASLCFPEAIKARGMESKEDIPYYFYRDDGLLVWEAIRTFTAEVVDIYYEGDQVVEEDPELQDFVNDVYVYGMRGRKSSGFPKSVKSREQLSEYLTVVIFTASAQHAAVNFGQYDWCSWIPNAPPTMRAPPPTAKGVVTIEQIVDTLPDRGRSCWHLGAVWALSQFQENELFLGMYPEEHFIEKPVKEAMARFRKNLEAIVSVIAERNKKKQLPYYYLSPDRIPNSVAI

[4] = target: T2, Prostaglandin G/H synthase 2 (Homo sapiens, UniProt P35354); experiment: Inhibition of COX2 (unknown origin)
T2 sequence (P35354 whole entry): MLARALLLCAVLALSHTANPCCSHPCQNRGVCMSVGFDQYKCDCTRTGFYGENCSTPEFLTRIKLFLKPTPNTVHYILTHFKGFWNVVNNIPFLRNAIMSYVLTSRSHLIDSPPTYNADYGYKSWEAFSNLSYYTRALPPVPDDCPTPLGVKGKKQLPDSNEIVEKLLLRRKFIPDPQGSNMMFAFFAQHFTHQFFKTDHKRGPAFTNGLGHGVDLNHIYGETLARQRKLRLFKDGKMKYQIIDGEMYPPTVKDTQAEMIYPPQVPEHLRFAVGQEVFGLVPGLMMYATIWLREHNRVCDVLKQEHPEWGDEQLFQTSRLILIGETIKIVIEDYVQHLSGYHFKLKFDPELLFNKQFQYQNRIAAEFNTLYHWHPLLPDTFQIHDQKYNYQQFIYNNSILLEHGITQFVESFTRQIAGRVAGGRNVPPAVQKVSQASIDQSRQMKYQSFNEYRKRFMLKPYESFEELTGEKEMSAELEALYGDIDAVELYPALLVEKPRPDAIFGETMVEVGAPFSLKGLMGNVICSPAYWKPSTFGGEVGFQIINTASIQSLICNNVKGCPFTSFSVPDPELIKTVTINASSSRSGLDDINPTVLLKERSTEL

Rattus norvegicus [5] = experiment: Antiinflammatory activity in rat assessed as inhibition of paw edema; type: functional
[6] = target: T3, Prostaglandin G/H synthase 1 (Ovis aries) (UniProt P05979); experiment: Inhibition of COX1 in ovine thrombocyte at 10 uM relative to control
T3 sequence (whole entry): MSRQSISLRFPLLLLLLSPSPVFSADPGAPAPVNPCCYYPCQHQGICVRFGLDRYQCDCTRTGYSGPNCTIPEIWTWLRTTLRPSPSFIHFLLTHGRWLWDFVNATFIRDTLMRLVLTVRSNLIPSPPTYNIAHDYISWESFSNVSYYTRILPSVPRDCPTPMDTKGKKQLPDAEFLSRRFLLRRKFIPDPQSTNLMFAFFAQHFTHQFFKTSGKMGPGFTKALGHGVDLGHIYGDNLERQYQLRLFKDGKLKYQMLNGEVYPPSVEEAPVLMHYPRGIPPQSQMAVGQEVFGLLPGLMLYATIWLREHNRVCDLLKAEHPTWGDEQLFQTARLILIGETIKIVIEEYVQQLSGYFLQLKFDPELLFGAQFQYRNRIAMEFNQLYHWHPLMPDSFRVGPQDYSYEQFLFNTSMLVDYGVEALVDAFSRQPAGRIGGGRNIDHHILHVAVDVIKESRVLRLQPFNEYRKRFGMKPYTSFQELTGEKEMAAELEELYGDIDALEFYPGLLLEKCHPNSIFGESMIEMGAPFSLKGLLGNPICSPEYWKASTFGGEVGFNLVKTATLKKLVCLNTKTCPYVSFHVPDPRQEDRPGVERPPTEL

SMILES: COc1ccc(C(=O)c2ccc3n2CCC3C(=O)O)cc1 (stereo not drawn) [ANIROLAC]
- fold change (FC) (Rattus norvegicus [1]): 83
- fold change (FC) (Mus musculus): 117

SMILES: O=C(c1ccccc1)c1ccc2n1CCCCC2C(=O)O (stereo not drawn)
- fold change (FC) (Rattus norvegicus [1]): -0.4
- fold change (FC) (Mus musculus): -3

SMILES: Cc1ccc(C(=O)c2ccc3n2CCC3C(=O)O)cc1 (stereo not drawn)
- fold change (FC) (Rattus norvegicus [1]): 39
- fold change (FC) (Mus musculus): 165

SMILES: CS(=O)(=O)c1ccc(-c2cn3c(c2-c2ccc(Cl)cc2)CCC3)cc1
- IC50 [2]: 8200 nM
- IP [3]: 0%
- IC50 [4]: 8 nM

SMILES: Cc1ccccc1NC(=O)c1c(NC(=O)CCCl)c(C#N)c2n1CCC2
- inhibition (INH) (Rattus norvegicus [5]): 17.5%

SMILES: N#Cc1ccc(C(=O)c2ccc3n2CCC3C(=O)O)cc1 (stereo not drawn)
- fold change (FC) (Rattus norvegicus [1]): <1
- fold change (FC) (Mus musculus): 6

SMILES: O=C(c1ccc(Cl)cc1)c1ccc2n1CCCC2C(=O)O (stereo not drawn)
- fold change (FC) (Rattus norvegicus [1]): <=0.6
- fold change (FC) (Mus musculus): <1

SMILES: O=C(O)/C=C/c1c(-c2ccc(Cc3ccccc3)cc2)c(-c2ccccc2)c2n1CCC2
- IP [6]: 28%

SMILES: O=C(O)/C=C/c1c(-c2ccc(-c3ccccc3)cc2)c(-c2ccccc2)c2n1CCC2
- IP [6]: 35%

SMILES: Cc1ccccc1NC(=O)c1c(NC(=O)CCN2CCOCC2)c(C#N)c2n1CCC2
- inhibition (INH) (Rattus norvegicus [5]): 3.2%

SMILES: CC(=O)Nc1c(C#N)c2n(c1C(=O)Nc1ccccc1Cl)CCC2
- inhibition (INH) (Rattus norvegicus [5]): 23.9%

SMILES: Cc1ccccc1NC(=O)c1c(NC(=O)CCl)c(C#N)c2n1CCC2
- inhibition (INH) (Rattus norvegicus [5]): 20.3%

SMILES: COC1c2c(-c3ccccc3)c(-c3ccc(Cl)cc3)c(C)n2CC1(C)C (stereo not drawn)
- IC50 [4]: 7500 nM

SMILES: CSc1ccc(C(=O)c2ccc3n2CCCCC3C(=O)O)cc1 (stereo not drawn)
- fold change (FC) (Rattus norvegicus [1]): <0.2
- fold change (FC) (Mus musculus): -6

SMILES: CC1(C)Cc2c(-c3ccccc3)c(-c3occ4ccccc34)c(CC(=O)O)n2C1
- IC50 [2]: 20 nM

SMILES: CC(=O)Nc1c(C#N)c2n(c1C(=O)Nc1ccccc1C)CCC2
- inhibition (INH) (Rattus norvegicus [5]): 23.2%

SMILES: O=C(Cc1ccccc1)c1ccc2n1CCC2C(=O)O (stereo not drawn)
- fold change (FC) (Rattus norvegicus [1]): 3
- fold change (FC) (Mus musculus): 14

SMILES: O=C(O)/C=C/c1c(-c2ccc(O)cc2)c(-c2ccccc2)c2n1CCC2
- IP [6]: 0%

SMILES: Cc1ccccc1NC(=O)c1c(NC(=O)CN2CCOCC2)c(C#N)c2n1CCC2
- inhibition (INH) (Rattus norvegicus [5]): 3.9%

SMILES: N#Cc1c(NC(=O)CCCl)c(C(=O)Nc2ccccc2Cl)n2c1CCC2
- inhibition (INH) (Rattus norvegicus [5]): 18%

SMILES: O=C(O)/C=C/c1c(-c2ccc(S(=O)(=O)c3ccccc3)cc2)c(-c2ccccc2)c2n1CCC2
- IP [6]: 0%

SMILES: O=C(O)/C=C/c1c(-c2ccc(Sc3ccccc3)cc2)c(-c2ccccc2)c2n1CCC2
- IP [6]: 40%

SMILES: O=C(c1ccc(Cl)cc1)c1c(Cl)cc2n1CCC2C(=O)O (stereo not drawn)
- fold change (FC) (Rattus norvegicus [1]): 88
- fold change (FC) (Mus musculus): 167

SMILES: O=C(c1ccccc1)c1ccc2n1CCCC2C(=O)O (stereo not drawn)
- fold change (FC) (Rattus norvegicus [1]): <1
- fold change (FC) (Mus musculus): 9

SMILES: O=C(O)/C=C/c1c(-c2ccc(Nc3ccc(Cl)cc3)cc2)c(-c2ccccc2)c2n1CCC2
- IP [6]: 12%

SMILES: COc1ccc(C(=O)c2ccc3n2CCCC3C(=O)O)cc1 (stereo not drawn)
- fold change (FC) (Rattus norvegicus [1]): <1.6
- fold change (FC) (Mus musculus): 1.5

SMILES: CC1(C)Cc2c(-c3ccccc3)c(-c3ccc(Cl)s3)c(CC(=O)O)n2C1
- IC50 [2]: 210 nM

SMILES: O=C(c1ccccc1)c1ccc2n1CC(C(=O)O)C2 (stereo not drawn)
- fold change (FC) (Rattus norvegicus [1]): <1
- fold change (FC) (Mus musculus): -4

SMILES: O=C(c1ccc(Cl)cc1)c1ccc2n1CC(C(=O)O)C2 (stereo not drawn)
- fold change (FC) (Rattus norvegicus [1]): <0.3
- fold change (FC) (Mus musculus): <10
